# Results from patent US20240344145A1, “PHARMACOGENOMICS SCORE TO MAKE DECISIONS ON THERAPY AUGMENTATION IN AML” (University of Florida Research Foundation, Incorporated, priority 2021, published 2024).
# Tested on: ara-C metabolic pathway genes
# Assay: Association of ara-C pathway SNP genotypes with MRD1, EFS and OS in AML02 (logistic regression and Cox models; also within LDAC and HDAC arms)
# Set-up: species or system human
# Conditions: within arm of AML02
# From the text: Genomic DNA from patients enrolled in the multi-site St. Jude AML02 trial was genotyped for 155 SNPs in 16 genes of relevance to ara-C pharmacology using sequenom iPlex platform that uses MALDI-TOF based chemistry at University of Minnesota, Biomedical Genomics Center. SNPs were selected based on previously reported studies. For SNPs lacking literature on genetic variation, SNPs were selected to capture LD blocks (European and African ancestry) on a gene. Of 155 SNPs, 1 SNP was excluded due to low call rate (<90%), 47 SNPs were excluded due to minimum allele frequency of less than 5%, 11 SNPs were excluded due to high LD (r^2>0.9) with other SNPs; two SNPs were excluded because of deviation from Hardy-Weinberg equilibrium. Genotype for the COG-AAML0531 cohort for the selected SNPs was obtained using sequenom platform or TaqMan genotyping assays, and for a few SNPs was extracted from the data available on Illumina 2.5 Omni array. Genotype calls from multiple platforms were confirmed across multiple samples randomly collected from the cohort.
# SNP genotype groups in three different modes of inheritance (additive, dominant, and recessive) were tested for association with MRD1 using logistic regression models. Odds ratio (OR) and 95% confidence interval (CI) were calculated for each test. SNPs with association P-value<0.05 were considered significant. Cox-proportional hazard models were used to evaluate association of genotype groups with EFS or OS. Hazard ratio (HR) and 95% CI were calculated for each test. p-value<0.05 was considered statistically significant. Given initial risk group assignments are well-established prognostic factors associated with outcome, outcome association analysis of SNPs with and without adjusting for risk group was also performed to identify SNPs that are associated with outcome independent of risk group.
# SNPs with p<0.15 in risk-adjusted univariate evaluation with clinical endpoints (MRD1, EFS, and OS) were tested for all possible combinations with a maximum of three SNPs per model in multivariable logistic regression models for association with MRD1 and Cox-proportional hazard models for association with EFS and OS. Analysis for up to 3 SNP combinations was restricted due to computational challenges as increasing the maximum number of SNPs per model drastically increases the number of models as 1000 permutations were run for each model. Models were ordered according to their Bayesian Information Criterion (BIC) and weight in favor of each model. One thousand permutation tests were performed for each model to determine statistical significance. The six unique SNPs from the most significant models for EFS and MRD1 were included in the development of the ACS10 score as described in the results section.
# The multicenter AML02 clinical trial randomly assigned subjects to receive low dose ara-C (LDAC: 100 mg/m^2; n=91 patients) or high dose ara-C(HDAC: 3 g/m^2; n=75 patients) in combination with daunorubicin and etoposide as the first course of chemotherapy as described above in patient cohort section. Thus, the association of SNPs with outcome within each arm separately was also explored (Table 5).
# [1] = rs4742 (DCTD, WT T, VAR C), MOI R
# [2] = rs5841 (NME4, WT C, VAR T), MOI D
# [3] = rs324148 (SLC29A1, WT C, VAR T), MOI A
# [4] = rs407983 (NME4, WT G, VAR C), MOI A
# [5] = rs507964 (SLC29A1, WT C, VAR A), MOI R
# [6] = rs580032 (CDA, WT T, VAR G), MOI D
# [7] = rs602950 (CDA, WT T, VAR C), MOI A
# [8] = rs747199 (SLC29A1, WT C, VAR G), MOI D
# [9] = rs818196 (CDA, WT G, VAR C), MOI D
# [10] = rs1048977 (CDA, WT C, VAR T), MOI D
# [11] = rs1138729 (RRM2, WT A, VAR G), MOI D
# [12] = rs2072671 (CDA, WT A, VAR C), MOI A
# [13] = rs2396243 (SLC29A1, WT G, VAR A), MOI D
# [14] = rs3088062 (CMPK1, WT T, VAR C), MOI A
# [15] = rs3743162 (SLC28A1, WT C, VAR T), MOI D
# [16] = rs3829540 (NME3, WT G, VAR A), MOI D
# [17] = rs3925058 (CMPK1, WT T, VAR C), MOI D
# [18] = rs4247411 (SLC28A1, WT C, VAR T), MOI D
# [19] = rs4271567 (SLC28A1, WT T, VAR A), MOI R
# [20] = rs4643786 (DCK, WT T, VAR C), MOI R
structure (smiles),measurement,setting,value
"Nc1ccn([C@@H]2O[C@H](CO)[C@@H](O)[C@@H]2O)c(=O)n1 [HDAC, cytarabine]",EFS HR (95% CI),[1],1.53 (0.98-2.4)
same,MRD1 OR (95% CI),[1],1.08 (0.49-2.38)
same,OS HR (95% CI),[1],1.49 (0.91-2.46)
same,EFS HR (95% CI),[2],0.86 (0.6-1.23)
same,MRD1 OR (95% CI),[2],0.48 (0.28-0.81)
same,OS HR (95% CI),[2],1.15 (0.74-1.81)
same,EFS HR (95% CI),[3],0.88 (0.52-1.5)
same,MRD1 OR (95% CI),[3],1.08 (0.55-2.1)
same,OS HR (95% CI),[3],0.75 (0.39-1.46)
same,EFS HR (95% CI),[4],1.1 (0.7-1.72)
same,MRD1 OR (95% CI),[4],1.43 (0.76-2.67)
same,OS HR (95% CI),[4],1.05 (0.62-1.8)
same,EFS HR (95% CI),[5],1.71 (1.12-2.62)
same,MRD1 OR (95% CI),[5],1.01 (0.51-2.01)
same,OS HR (95% CI),[5],1.37 (0.8-2.36)
same,EFS HR (95% CI),[6],0.45 (0.22-0.92)
same,MRD1 OR (95% CI),[6],0.91 (0.49-1.66)
same,OS HR (95% CI),[6],0.58 (0.28-1.19)
same,EFS HR (95% CI),[7],1.25 (0.74-2.09)
same,MRD1 OR (95% CI),[7],0.69 (0.32-1.48)
same,OS HR (95% CI),[7],0.86 (0.44-1.69)
same,EFS HR (95% CI),[8],0.97 (0.66-1.42)
same,MRD1 OR (95% CI),[8],1.37 (0.82-2.29)
same,OS HR (95% CI),[8],1.1 (0.72-1.71)
same,EFS HR (95% CI),[9],0.66 (0.45-0.98)
same,MRD1 OR (95% CI),[9],0.9 (0.56-1.47)
same,OS HR (95% CI),[9],0.73 (0.47-1.14)
same,EFS HR (95% CI),[10],0.9 (0.63-1.28)
same,MRD1 OR (95% CI),[10],1.09 (0.67-1.78)
same,OS HR (95% CI),[10],1.44 (0.7-2.98)
same,EFS HR (95% CI),[11],1.14 (0.78-1.66)
same,MRD1 OR (95% CI),[11],1.04 (0.61-1.77)
same,OS HR (95% CI),[11],1.42 (0.93-2.17)
same,EFS HR (95% CI),[12],1.18 (0.7-1.99)
same,MRD1 OR (95% CI),[12],0.73 (0.34-1.56)
same,OS HR (95% CI),[12],0.89 (0.46-1.75)
same,EFS HR (95% CI),[13],0.94 (0.63-1.39)
same,MRD1 OR (95% CI),[13],1.39 (0.84-2.31)
same,OS HR (95% CI),[13],0.87 (0.54-1.4)
same,EFS HR (95% CI),[14],1.41 (0.8-2.51)
same,MRD1 OR (95% CI),[14],1.16 (0.48-2.81)
same,OS HR (95% CI),[14],1.48 (0.75-2.94)
same,EFS HR (95% CI),[15],1.65 (1.15-2.36)
same,MRD1 OR (95% CI),[15],1.89 (1.15-3.11)
same,OS HR (95% CI),[15],1.43 (0.94-2.18)
same,EFS HR (95% CI),[16],0.71 (0.47-1.09)
same,MRD1 OR (95% CI),[16],0.82 (0.49-1.37)
same,OS HR (95% CI),[16],0.51 (0.27-0.93)
same,EFS HR (95% CI),[17],0.81 (0.56-1.18)
same,MRD1 OR (95% CI),[17],1.41 (0.79-2.53)
same,OS HR (95% CI),[17],0.76 (0.49-1.18)
same,EFS HR (95% CI),[18],1.69 (1.08-2.64)
same,MRD1 OR (95% CI),[18],1.91 (1.08-3.37)
same,OS HR (95% CI),[18],1.72 (1-2.95)
same,EFS HR (95% CI),[19],0.52 (0.29-0.95)
same,MRD1 OR (95% CI),[19],0.66 (0.35-1.23)
same,OS HR (95% CI),[19],0.54 (0.26-1.11)
same,EFS HR (95% CI),[20],1.15 (0.63-2.09)
same,MRD1 OR (95% CI),[20],0.87 (0.36-2.12)
same,OS HR (95% CI),[20],1.38 (0.75-2.56)
